# Patent US20230382869A1, “Phenyl-3,4-dihydroisoquinolin-2(1h)-yl-ethan-1-one derivatives as dopamine d1receptor positive allosteric modulators” (Eli Lilly and Company, priority 2020, published 2023)
# Where two headings read alike, the source gives them in different places.
# Experiments:
# human D1 receptor = human D1 receptor (Homo sapiens (Human), UniProt P21728); experiment: Human D1 Receptor PAM Assay (cAMP HTRF, potentiator mode); format: cell-based
# Excerpt: The PAM activity of the compounds of the present invention may be measured essentially as described in Svensson et al., An Allosteric Potentiator of the Dopamine D1 Receptor Increases Locomotor Activity in Human D1 Knock-in Mices without Casusing Stereotypy or Tachyphylaxis. J. Pharmacol. Exp. Ther. (2017) 360:117-128.
# More specifically, HEK293 cells that stably express the human D1 receptor (Accession number NM_000794) are generated by gene transduction using the pBABE-bleo retroviral vector and selected with Zeocin™ (InvivoGen). At approximately 80% confluency, the cells are harvested using TrypLE™ Express (Gibco), suspended in FBS plus 8% DMSO, and stored in liquid nitrogen. On the day of the assay, cells are thawed and resuspended in STIM buffer (Hanks Balanced Salt Solution supplemented with 0.1% BSA, 20 mM HEPES, 500 μM IBMX, and 100 μM ascorbic acid).
# Test compound is serially diluted (1:2) with DMSO into assay plates (ProxiPlate-384 Plus, PerkinElmer) using acoustic dispensing (Labcyte) to provide 20 concentrations for full response curves. Test compound (80 nL) is added to 5 μL STIM buffer containing 2000 cells, and 5 μL of a 2×concentration dopamine solution in STIM buffer that will generate an EC20 level response (24 nM in stock solution, or 12 nM final) and a final DMSO concentration in the well of 0.8%. Plates are incubated at room temperature for a total reaction time of 60 min.
# cAMP production is quantified using HTRF® detection (Cisbio) according to the manufacturer's instructions. Generally, lysis buffer containing anti-cAMP cryptate (5 μL) and D2-conjugate (from HTRF® kit)(5 μL) is added to the wells, plates are incubated for an additional 60-90 min, and the time-resolved fluorescence is detected using an EnVision™ plate reader (PerkinElmer). Fluorescence data is converted to cAMP concentrations using a cAMP standard curve and analyzing using a 4-parameter non-linear logistic equation (Genedata Screener, version 13.0.5-standard). For potentiator mode concentration-response curves, results are expressed as percent of the window between a response at EC20 concentration of dopamine alone (normalized to 0%) and the maximum response to dopamine (defined by response to 5 μM dopamine, final concentration, normalized as 100%). Absolute EC50 values are calculated based on the maximum and minimum responses of the control agonist (dopamine). The % Potentiation (% Top) is determined from the fitted top of the concentration response curve.
# [1] = Plasma and Brain Levels after oral dosing; format: in vivo, mouse; settings: for Kp uu at 1 h: ratio Cu,brain vs Cu,plasma
# Description: (§1) Example 7, 2-(2-chloro-6-fluoro-phenyl)-1-[(1S,3R)-6-fluoro-3-(hydroxymethyl)-5-(3-hydroxy-3-methyl-butyl)-1-methyl-3,4-dihydro-1H-isoquinolin-2-yl]ethenone, was orally dosed to male mouse from 3 mg/kg to 60 mg/kg in fed condition, and the plasma and brain concentration was determined 1 hr post-dose. The fraction unbound of the compound was determined in vitro as described previously (Zamek-Gliszczynski M J, et al., Validation of 96-well equilibrium dialysis with non-radiolabeled drug for definitive measurement of protein binding and application to clinical development of highly-bound drugs, J. Pharm. Sci. (2011) 100: 2498-2507). The ratio (Kpuu) of unbound brain concentration (Cu, brain) vs. unbound plasma concertation (Cu, plasma) was determined as described previously (Raub T J, et al., Brain Exposure of Two Selective Dual CDK4 and CDK6 Inhibitors and the Antitumor Activity of CDK4 and CDK6 Inhibition in Combination with Temozolomide in an Intracranial Glioblastoma Xenograft. Drug Metab. Dispos. (2015) 43:1360-71). The data presented below in Table 3 for Example 7 are averages from 3 animals at each dose. “Con.” refers to concentration.
# [2] = Fraction unbound in vitro (equilibrium dialysis); format: in vitro ADME
# Description: as §1
# Cytochrome P450 (CYP) = experiment: Fraction of CYP-mediated oxidative metabolism (fmCYP) in human hepatocytes with/without ABT; format: in vitro ADME
# Description: The relative contribution of P450 s in the overall metabolism of a compound was determined from the clearance of the drug in an assay using human hepatocytes in the presence and absence of the pan P450 inhibitor 1-aminobenzotriazole (ABT). The intrinsic clearance was determined in cryopreserved human hepatocytes essentially as described in McGinnity D F, et al. (2004) Evaluation of fresh and cryopreserved hepatocytes as in vitro drug metabolism tools for the prediction of metabolic clearance. Drug Metab Dispos 32:1247-1253. Generally, the assay incubations contain 0.3 μM test compound and 10^6 cells/mL hepatocytes, with or without 0.5 hr. pre-incubation with ABT (1 mM). Parent compound loss is measured by LC/MS after 15, 30, 60 and 90 min. incubation. The intrinsic clearance (μL/min/10^6 cells) is calculated using the following equation for both ±ABT. The fraction of metabolism by CYP is the percentage of inhibition by ABT.
# CLint=−kdep×incubation volume/10^6 cells,
# in which the kdep, the substrate depletion constant (min^−1), is the slope determined using linear regression from the log transformed % remaining on the y-axis vs time on the x-axis (min^−1).
# [3] = Renal and biliary excretion in bile-duct cannulated dogs; format: in vivo, dog
# Description: The renal and biliary excretion of test compounds is tested in bile-duct cannulated dogs essentially according to Burkey J L, et al. (2002) Disposition of LY333531, a selective protein kinase C beta inhibitor, in the Fischer 344 rat and beagle dog. Xenobiotica 32:1045-1052. The compound of Example 7 is tested essentially as described and its renal and biliary excretion is found to be negligible. The fraction of compound cleared through CYP3A4 metabolism is calculated using the equation below: […]
# Chain of human D1 receptor (P21728 whole entry): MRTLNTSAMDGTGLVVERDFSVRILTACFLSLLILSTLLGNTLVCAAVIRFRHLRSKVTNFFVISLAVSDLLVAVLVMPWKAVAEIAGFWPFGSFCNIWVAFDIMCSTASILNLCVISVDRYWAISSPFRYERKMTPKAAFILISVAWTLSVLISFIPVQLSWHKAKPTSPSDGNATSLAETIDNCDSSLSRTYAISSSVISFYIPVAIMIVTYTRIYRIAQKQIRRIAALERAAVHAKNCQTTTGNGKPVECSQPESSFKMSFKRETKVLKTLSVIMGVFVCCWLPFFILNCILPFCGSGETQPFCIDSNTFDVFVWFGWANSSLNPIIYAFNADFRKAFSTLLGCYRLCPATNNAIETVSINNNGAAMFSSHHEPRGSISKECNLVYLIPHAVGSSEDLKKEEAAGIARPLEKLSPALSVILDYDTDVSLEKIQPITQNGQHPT
smiles,measurement,setting,value
"C[C@H]1c2ccc(F)c(CCC(C)(C)O)c2C[C@H](CO)N1C(=O)Cc1c(F)cccc1Cl [Example 7, 2-(2-chloro-6-fluoro-phenyl)-1-[(1S,3R)-6-fluoro-3-(hydroxymethyl)-5-(3-hydroxy-3-methyl-butyl)-1-methyl-3,4-dihydro-1H-isoquinolin-2-yl]ethanone]",EC50,"human D1 receptor; HEK293 cells expressing human D1, with EC20 dopamine (12 nM final), cAMP, read-out: Abs EC50",10.2 ± 1.4 nM
same,% Top (% Potentiation),"human D1 receptor; fitted top, 0% = EC20 dopamine alone, 100% = 5 μM dopamine",90.9%
same,concentration at 1 h,"[1]; brain, 3 mg/kg oral, 1 hr post-dose, male mouse, fed, read-out: Brain con.",18 nM
same,concentration at 1 h,"[1]; brain, 6 mg/kg oral, 1 hr post-dose, male mouse, fed, read-out: Brain con.",45.1 nM
same,concentration at 1 h,"[1]; brain, 10 mg/kg oral, 1 hr post-dose, male mouse, fed, read-out: Brain con.",84.9 nM
same,concentration at 1 h,"[1]; brain, 30 mg/kg oral, 1 hr post-dose, male mouse, fed, read-out: Brain con.",557 nM
same,concentration at 1 h,"[1]; brain, 60 mg/kg oral, 1 hr post-dose, male mouse, fed, read-out: Brain con.",1290 nM
same,Kp uu at 1 h,"[1]; male, mouse, 3 mg/kg oral, 1 hr",0.126
same,Kp uu at 1 h,"[1]; male, mouse, 6 mg/kg oral, 1 hr",0.143
same,Kp uu at 1 h,"[1]; male, mouse, 10 mg/kg oral, 1 hr",0.122
same,Kp uu at 1 h,"[1]; male, mouse, 30 mg/kg oral, 1 hr",0.194
same,Kp uu at 1 h,"[1]; male, mouse, 60 mg/kg oral, 1 hr",0.248
same,concentration at 1 h,"[1]; male, mouse, unbound brain concentration, 3 mg/kg oral, 1 hr, read-out: Cu, brain",0.448 nM
same,concentration at 1 h,"[1]; male, mouse, unbound brain concentration, 6 mg/kg oral, 1 hr, read-out: Cu, brain",1.12 nM
same,concentration at 1 h,"[1]; male, mouse, unbound brain concentration, 10 mg/kg oral, 1 hr, read-out: Cu, brain",2.11 nM
same,concentration at 1 h,"[1]; male, mouse, unbound brain concentration, 30 mg/kg oral, 1 hr, read-out: Cu, brain",13.9 nM
same,concentration at 1 h,"[1]; male, mouse, unbound brain concentration, 60 mg/kg oral, 1 hr, read-out: Cu, brain",32.1 nM
same,concentration at 1 h,"[1]; male, mouse, unbound plasma concentration, 3 mg/kg oral, 1 hr, read-out: Cu, plasma",4.97 nM
same,concentration at 1 h,"[1]; male, mouse, unbound plasma concentration, 6 mg/kg oral, 1 hr, read-out: Cu, plasma",9.62 nM
same,concentration at 1 h,"[1]; male, mouse, unbound plasma concentration, 10 mg/kg oral, 1 hr, read-out: Cu, plasma",17.1 nM
same,concentration at 1 h,"[1]; male, mouse, unbound plasma concentration, 30 mg/kg oral, 1 hr, read-out: Cu, plasma",70.1 nM
same,concentration at 1 h,"[1]; male, mouse, unbound plasma concentration, 60 mg/kg oral, 1 hr, read-out: Cu, plasma",128 nM
same,concentration at 1 h,"[1]; plasma, 3 mg/kg oral, 1 hr post-dose, male mouse, fed, read-out: Plasma con.",353 nM
same,concentration at 1 h,"[1]; plasma, 6 mg/kg oral, 1 hr post-dose, male mouse, fed, read-out: Plasma con.",682 nM
same,concentration at 1 h,"[1]; plasma, 10 mg/kg oral, 1 hr post-dose, male mouse, fed, read-out: Plasma con.",1210 nM
same,concentration at 1 h,"[1]; plasma, 30 mg/kg oral, 1 hr post-dose, male mouse, fed, read-out: Plasma con.",4980 nM
same,concentration at 1 h,"[1]; plasma, 60 mg/kg oral, 1 hr post-dose, male mouse, fed, read-out: Plasma con.",9080 nM
same,fraction unbound,"[2]; fraction unbound in brain, read-out: fu, brain",0.0249
same,fraction unbound,"[2]; fraction unbound in plasma, read-out: fu, plasma",0.0141
same,route of metabolism in hepatocytes,Cytochrome P450 (CYP),primarily metabolized through non-oxidative processes
same,fmCYP,"Cytochrome P450 (CYP); CLint ±ABT (1 mM), 0.3 μM compound",0.322
same,fractions metabolized by CYPs,Cytochrome P450 (CYP); ±ABT,32.3%
same,renal and biliary excretion,[3],negligible
